Assay results reported in ChEMBL document CHEMBL3352438, “Synthesis, characterization, molecular docking and anti-tubercular activity of Plumbagin-Isoniazid Analog and its β-cyclodextrin conjugate” (2014).
≈ marks a conversion by molar mass, not a printed value.

Tests used:
Assay type in all cases: functional
Conditions in all cases: ATCC 27294, 120 h
[1] = test system: Mycobacterium tuberculosis; assay: Antitubercular activity against Mycobacterium tuberculosis ATCC 27294 in 7H9 medium after 5 days by Alamar blue assay
[2] = test system: Mycobacterium tuberculosis; assay: Antitubercular activity against Mycobacterium tuberculosis ATCC 27294 in high iron condition after 5 days by Alamar blue assay
[3] = test system: Mycobacterium tuberculosis; assay: Antitubercular activity against Mycobacterium tuberculosis ATCC 27294 in low iron condition after 5 days by Alamar blue assay

| Compound | MIC [1] | MIC [2] | MIC [3] |
| --- | --- | --- | --- |
| NNC(=O)c1ccncc1 [ISONIAZID] | 0.25 µg/mL (≈ 1.82 µM) | 0.125 µg/mL (≈ 0.911 µM) | 32 µg/mL (≈ 233 µM) |
| CC1=C/C(=N\NC(=O)c2ccncc2)c2c(O)cccc2C1=O | 8 µg/mL (≈ 26 µM) | 0.5 µg/mL (≈ 1.63 µM) | 2 µg/mL (≈ 6.51 µM) |
| CC1=CC(=O)c2c(O)cccc2C1=O [PLUMBAGIN] | 32 µg/mL (≈ 170 µM) | 4 µg/mL (≈ 21.3 µM) | 128 µg/mL (≈ 680 µM) |
